Laboratory results reported in ChEMBL document CHEMBL1201862, “PubChem BioAssay data set” (2004).
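Test compounds were applied to cells in 96-well plates for 48 hours at 5 doses. GI50 marks 50% less growth.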 The source made the active and inactive calls. Cut-off read from the data, not from the text of the source: active = GI50 up to about 1.1 µM and inactive = higher.

Experiments:
Test in all cases: inhibition of tumour cell growth, NCI panel, 48 h
OVCAR-4 = tested on: OVCAR-4
HT-29 = tested on: HT-29
SN12C = tested on: SN12C
M14 = tested on: M14
SF-539 = tested on: SF-539
MDA-MB-231 = tested on: MDA-MB-231
EKVX = tested on: EKVX
RXF 393 = tested on: RXF 393
SF-268 = tested on: SF-268
COLO 205 = tested on: COLO 205
HCC 2998 = tested on: HCC 2998
A549 = tested on: A549
NCI-H460 = tested on: NCI-H460
NCI-H226 = tested on: NCI-H226
SR = tested on: SR
MCF7 = tested on: MCF7
SF-295 = tested on: SF-295
SK-MEL-5 = tested on: SK-MEL-5
HCT-116 = tested on: HCT-116
SW-620 = tested on: SW-620

Measured: GI50

O=[N+]([O-])C(/C=C(\Cl)[N+](=O)[O-])=C1Nc2ccccc2N1
inactive: OVCAR-4 > 100 µM | HT-29 39.6 µM | SN12C 39.7 µM | M14 60.8 µM | SF-539 35.5 µM | MDA-MB-231 36.7 µM | EKVX 48.5 µM | RXF 393 38.1 µM | SF-268 57.1 µM | COLO 205 30.5 µM | HCC 2998 > 100 µM | A549 > 100 µM | NCI-H460 > 100 µM | NCI-H226 43.3 µM | SR 29.6 µM | MCF7 39.6 µM | SF-295 35.4 µM | SK-MEL-5 70.8 µM | HCT-116 50.1 µM | SW-620 > 100 µM

Cc1nc2cccc(F)c2c(=O)n1C1CCCCNC1=O (stereo not given)
inactive: OVCAR-4 > 10 µM | HT-29 > 10 µM | SN12C > 10 µM | M14 > 10 µM | SF-539 > 10 µM | MDA-MB-231 > 10 µM | EKVX > 10 µM | RXF 393 > 10 µM | SF-268 > 10 µM | COLO 205 > 10 µM | HCC 2998 > 10 µM | A549 > 10 µM | NCI-H460 > 10 µM | NCI-H226 > 10 µM | SR > 10 µM | MCF7 > 10 µM | SF-295 > 10 µM | SK-MEL-5 > 10 µM | HCT-116 > 10 µM | SW-620 > 10 µM
